Drawing on PubChem BioAssay (NCI), this text covers TGI for 15 molecules.

Assay in all cases: DTP human tumour cell line panel, 48 h
Assay [1] relates to RXF 393 renal.
Assay [2] has as its system BT-549 breast.
For assay [3], the system named is MCF7 breast.
Assay [4] relates to RPMI-8226 leukemia.
The test system of assay [5] is UO-31 renal.
Assay [6] relates to NCI-H460 lung.
Assay [7] has as its system COLO 205 colon.
In assay [8] the test system is 786-0 renal.
Assay [9] has as its system HT29 colon.
Assay [10] relates to SK-MEL-2 melanoma.
Assay [11] deals with SF-268 CNS.
The subject of assay [12] is OVCAR-5 ovarian.
Assay [13] has as its system CAKI-1 renal.
Assay [14] deals with A498 renal.
Assay [15] concerns MDA-N.
In assay [16] the test system is SK-OV-3 ovarian.
Assay [17] deals with NCI-H23 lung.
Assay [18] has as its system OVCAR-8 ovarian.
In assay [19] the test system is HCT-116 colon.
The test system of assay [20] is NCI-H226 lung.

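96-well plates; 48 h exposure; 5 concentrations. Endpoints by linear interpolation between flanking doses. Not reached: highest tested concentration assigned. The concentration for full growth arrest is given as TGI.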

As for `Cc1cc(S(=O)(=O)Nc2nc3ccccc3[nH]2)c(S)cc1Cl`, the total growth inhibition concentration (TGI) in assay [1], in assay [2], in assay [3], in assay [4], in assay [5] and in assay [6] was greater than 100 µM in each case. The TGI in assay [7], in [8], in assay [9], in [10], in assay [11] and in [12] was greater than 100 µM each time. Besides, the TGI in assay [13], in assay [14], in assay [15], in assay [16], in [17] and in assay [18] was greater than 100 µM throughout. The concentration for total growth inhibition (TGI) in assay [19] is 76.5 µM.

For `COC(=O)/C(=N\N)C(C(=O)C(=O)Nc1cccc([N+](=O)[O-])c1)c1nc2ccc(C(=O)c3ccccc3)cc2[nH]c1=O` (stereo not given), the TGI in assay [1], in assay [2], in assay [3], in assay [5], in assay [6] and in assay [7] was greater than 100 µM in each case. Moreover, the TGI in assay [8], in assay [9], in assay [10], in assay [11], in assay [12] and in assay [20] was greater than 100 µM in each case. Moreover, the concentration for total growth inhibition (TGI) in assay [13], in assay [15], in assay [16], in [17], in [18] and in assay [19] was greater than 100 µM throughout.

With `CC(C)Oc1c(C2(c3ccccc3O)SCCCS2)c(=O)c1=O`, the TGI in [1], in assay [2], in assay [3], in assay [5], in assay [6] and in [7] was greater than 100 µM each time. In addition, the concentration for total growth inhibition (TGI) in [8], in [9], in assay [10], in assay [11], in [12] and in assay [20] was greater than 100 µM each time. Also, the concentration for total growth inhibition (TGI) in [13], in assay [14], in assay [15], in assay [16], in assay [17] and in assay [18] was greater than 100 µM in each case. Further, the total growth inhibition concentration (TGI) in assay [19] is greater than 100 µM.

In the case of `CC(C)C(C/C=C1/CC(CO)(COC(=O)C(C)(C)C)OC1=O)C(C)C` (stereo not given), the TGI in assay [1] stood at 30.5 µM; in assay [2], 26.9 µM; in [3] it was 35.6 µM; in [5] it was 17.3 µM; in assay [6], 25.7 µM; in assay [7], 5.32 µM. In addition, the total growth inhibition concentration (TGI) was determined as 18.2 µM in assay [8]; 32.3 µM in [9]; 29.9 µM in assay [10]; 23.5 µM in assay [11]; 24.3 µM in assay [12]; 22.7 µM in [20]. Further, the concentration for total growth inhibition (TGI) amounted to 17.9 µM in [13]; 21.8 µM in assay [14]; 19.6 µM in [15]; 30.7 µM in assay [16]; 23.8 µM in assay [17]; 36.4 µM in assay [18]. Moreover, the total growth inhibition concentration (TGI) in assay [19] was found to be 27.5 µM.

As to `N#C/C(=C\c1ccc(F)cc1)c1nc2ccccc2c(=O)[nH]1`, the total growth inhibition concentration (TGI) in [1], in assay [2], in assay [3], in assay [4], in [5] and in assay [6] was greater than 100 µM each time. Moreover, the total growth inhibition concentration (TGI) in [7], in assay [8], in assay [9], in assay [10], in [11] and in assay [12] was greater than 100 µM throughout. For the same molecule, the concentration for total growth inhibition (TGI) in assay [20], in assay [13], in assay [15], in assay [16], in assay [18] and in assay [19] was greater than 100 µM each time.

`CCNc1nc(N)c(C(=O)c2cccs2)s1`: the concentration for total growth inhibition (TGI) in assay [1] was 20 µM; in assay [2], greater than 100 µM; in [3], greater than 100 µM; in assay [5] it was greater than 100 µM; in assay [6] it was greater than 100 µM; in [7], 22.8 µM. The TGI was greater than 100 µM in assay [8]; 72.4 µM in [9]; 45 µM in assay [10]; greater than 100 µM in assay [11]; greater than 100 µM in [12]; 76 µM in assay [20]. For the same molecule, the total growth inhibition concentration (TGI) was 59.9 µM in assay [13]; 82.6 µM in [14]; greater than 100 µM in [15]; greater than 100 µM in assay [16]; 63.9 µM in assay [17]; greater than 100 µM in assay [18]. The TGI in assay [19] was greater than 100 µM.

Turning to `CC(=O)/C(N=Nc1ccc(-n2c(C)nc3ccc(Br)cc3c2=O)cc1)=C(/C)O`, the TGI in assay [2], in [3], in [4], in [5], in assay [6] and in assay [7] was greater than 100 µM each time. Further, the TGI in [8], in assay [9], in [10], in assay [11], in assay [12] and in [20] was greater than 100 µM in each case. Also, the TGI in [13], in [14], in [15], in [16], in assay [17] and in assay [18] was greater than 100 µM in each case. The same molecule had a TGI in assay [19] greater than 100 µM.

As for `CN(C)CCn1c(=O)oc2cc(C(=O)CN3CCOCC3)ccc21`, the TGI in assay [1], in assay [2], in assay [3], in assay [4], in assay [5] and in assay [6] was greater than 100 µM each time. The total growth inhibition concentration (TGI) in assay [7], in [8], in assay [9], in [10], in assay [11] and in assay [12] was greater than 100 µM throughout. Further, the TGI in assay [20], in assay [13], in [15], in assay [16], in assay [17] and in assay [18] was greater than 100 µM in each case. The molecule also gave a concentration for total growth inhibition (TGI) in assay [19] greater than 100 µM.

For the molecule `Cc1ccc(/C=N/Nc2cc(C)c3ccccc3n2)s1`, the concentration for total growth inhibition (TGI) is 75.5 µM in assay [1]; 42 µM in assay [2]; 39.6 µM in assay [3]; 29.1 µM in assay [4]; greater than 100 µM in assay [5]; greater than 100 µM in assay [7]. Further, the TGI in [8] is greater than 100 µM; in assay [9], 18.7 µM; in [10] it was greater than 100 µM; in assay [11], greater than 100 µM; in assay [12], 37.4 µM; in assay [20], 52.7 µM. Moreover, the TGI in assay [13] is 37 µM; in assay [15] it was 37.6 µM; in assay [16] it was 43.2 µM; in assay [17] it was 96.3 µM; in [18] it was greater than 100 µM; in [19], greater than 100 µM.

As for `N#Cc1c(N)c2c(c(-c3ccccc3)c1-c1ccccc1)C(=O)N(Nc1ccccc1)C2=O`, the total growth inhibition concentration (TGI) was 65.2 µM in assay [1]; greater than 100 µM in assay [2]; greater than 100 µM in [3]; greater than 100 µM in assay [4]; 78.3 µM in assay [5]; greater than 100 µM in assay [6]. For the same molecule, the TGI in assay [7] is 56.7 µM; in assay [8], greater than 100 µM; in assay [10] it was greater than 100 µM; in [11] it was greater than 100 µM; in [12], greater than 100 µM; in assay [20] it was greater than 100 µM. For the same molecule, the TGI in [13] was greater than 100 µM; in [14], greater than 100 µM; in assay [15], greater than 100 µM; in assay [18], greater than 100 µM; in [19] it was 43.7 µM.

On to `CCN(CC)CCSc1n[nH]c(-c2c[nH]c3nc(C)ccc3c2=O)n1`, for which the TGI in assay [1], in assay [2], in assay [3], in assay [4], in [5] and in assay [6] was greater than 100 µM each time. For the same molecule, the total growth inhibition concentration (TGI) in assay [7], in assay [8], in assay [9], in assay [10], in assay [11] and in assay [12] was greater than 100 µM each time. The concentration for total growth inhibition (TGI) in [20], in [13], in assay [14], in assay [15], in [17] and in assay [18] was greater than 100 µM throughout. In addition, the total growth inhibition concentration (TGI) in assay [19] was greater than 100 µM.

As for `CC(=O)/C=C(/C=N/O)c1ccccc1`, the TGI in [2], in assay [3], in assay [4], in assay [5], in assay [6] and in assay [7] was greater than 100 µM throughout. Also, the TGI in [8], in assay [9], in assay [10], in [11], in assay [12] and in assay [20] was greater than 100 µM throughout. In addition, the TGI in [13], in [15], in assay [16], in assay [17], in assay [18] and in [19] was greater than 100 µM in each case.

With `CCOC(=O)c1c(C)noc1/N=N/N(CCO)CCO`, the total growth inhibition concentration (TGI) in [1] was 50.3 µM; in assay [2] it was greater than 100 µM; in [3], greater than 100 µM; in assay [5] it was 77.2 µM; in assay [6], greater than 100 µM; in assay [7] it was 70.1 µM. Further, the concentration for total growth inhibition (TGI) in assay [8] is greater than 100 µM; in [9] it was greater than 100 µM; in assay [11], greater than 100 µM; in [12], greater than 100 µM; in assay [20], 63.5 µM; in assay [13], greater than 100 µM. For the same molecule, the TGI in [14] is 75.3 µM; in [15], greater than 100 µM; in assay [16] it was greater than 100 µM; in assay [17], greater than 100 µM; in [18], greater than 100 µM; in [19] it was greater than 100 µM.

`COCOc1cc(OC)c(Br)cc1C/C(=N/O)C(=O)OC`: the TGI in assay [1], in assay [2], in assay [3], in assay [5], in assay [6] and in assay [7] was greater than 100 µM throughout. Moreover, the TGI in assay [8], in assay [9], in assay [10], in [11], in assay [12] and in [20] was greater than 100 µM each time. The total growth inhibition concentration (TGI) in [13], in assay [15], in [16], in [17], in assay [18] and in assay [19] was greater than 100 µM in each case.

For the molecule `C[n+]1c2ccccc2c(C(=O)NC(CCCN=C(N)N)C(=O)O)c2ccccc21` (stereo not given), the total growth inhibition concentration (TGI) in [2], in [3], in assay [4], in assay [5], in assay [6] and in assay [7] was greater than 100 µM throughout. Also, the concentration for total growth inhibition (TGI) in [8], in assay [9], in [10], in assay [11], in assay [12] and in assay [14] was greater than 100 µM throughout. The TGI in assay [15], in assay [16], in assay [17], in [18] and in assay [19] was greater than 100 µM in each case.
